“Also recorded” adds a separate entry of the source.
How the values were obtained:
KIR2DL1-Fc = KIR2DL1-Fc binding to immobilized HLA-peptide complexes by BLI (Octet RED96); conditions: 2 μM KIR2DL1-Fc, biotinylated complex on SA sensor tip
From the text: Binding to buffer only was used for background subtraction.
Synthetic DNA constructs of KIR3DL1 (HLA-B*57:01) and KIR2DL1 (HLA-C*04:01) are cloned and expressed as Fc-fusion constructs in SF9 insect cells. HLA-B*57:01 and […] are refolded with both core and extending peptides and captured on a Strepavidin sensor chip for SPR analysis or a SA sensor tip for BLI analysis as for HLA-A*02:01. […] KIRDL-Fc fusion proteins are, therefore, used to measure the binding affinity, since their bivalency will increase overall binding affinity. […] Further, KIRDL-Fc fusion proteins are immobilized using an anti-human Fc antibody capture chip (GE Healthcare) and the binding of HLA-tetramers to the immobilized KIRDL receptors measured. This increases affinity even further (tetra-valency versus bivalency). […] The C-terminally extended peptides all disrupt KIR2DL1 binding, regardless of whether they induce the “lysine lift” or the “tyrosine swing” (FIG. 19). […] This is proof of concept that structural alterations around the F pocket of HLA alleles that form the primary binding site for KIRL abrogate receptor binding.

HLA-C*03:07 = HLA-C*03:07 (Homo sapiens, UniProt P10321, A176E/A330V/A97T/C25G/C350S/D114A/D33Y/E197K/L119I/L127V/L171W/L218V/M285V/M309V/M331V/N104K/P208H/Q277E/Q291P/R243W/R45H/S101N/S123Y/S140Y/S297R/S48A/T118I/T187L/T329A/T363A/V319A); assay: Refolding of HLA-C*03:07 with peptides (SEC, SDS-PAGE, MALDI-TOF); format: binding; conditions: gel filtration
From the text: Note that A280 scale is different between the three panels.
Core peptides were chosen that have been crystallized in complex with HLA-B as well as HLA-C and designed variants containing C-terminal extensions (Table 3). […] HLA-C can be optimized while producing more HLA-B complexes for crystallization and structure determination using established methods. Crystallization is not major problem, since only HLA I-peptide complexes are crystallized and not ternary complexes containing a receptor. For HLA-A2*02:01, all 9 complexes were successfully crystallized thereby establishing a routine procedure. Structure determination is performed using molecular replacement (MR), using available reference structures.

HLA-A*02:01 = target: T1, HLA-A*02:01 (Homo sapiens, UniProt P04439, D140Y/D185E/D98H/E176V/E277Q/G131W/G231S/I119V/I121R/I166T/I218V/L300P/L318F/N151K/N90K/P208A/P217A/Q86G/Q94H/R138H/R169H/T345S); assay: Thermal denaturation assay (differential scanning fluorimetry) of HLA-A*02:01-β2m-peptide complexes; format: binding; conditions: for relative stability of HLA-peptide complex: thermal denaturation
T1 construct: HLA-A*02:01 class I heavy chain ectodomain (residues 21-274); made in house
Protocol: HLA-A*02:01-β2m-peptide complexes with the various different peptides were analyzed for thermal denaturation by differential scanning fluorimetry using a LightCycler 480 (Roche). HLA-A*02:01-β2m-peptide complexes with different peptides at 100 μM in reaction buffer (20 mM Tris-HCl pH 7.5, 150 mM NaCl) were used as stock solutions. Each reaction mixture constituted of 1-2 μl protein complex stock solution, 2l of SYPRO Orange dye (100×, Invitrogen) made up to 20 μl in reaction buffer in a 96-well white plate compatible with the instrument. A temperature gradient from 20° C.-85° C. at steps of 0.06° C./sec and 10 acquisitions/° C. was used for the experiment. Each experiment with individual protein-peptide complex was repeated thrice. A melt curve of the total fluorescence of the run was plotted against temperature. The minima of the first derivative of the melt curve from raw fluorescence data (temperature differential of absolute fluorescence versus temperature) provided the meting temperature (Tm) for individual HLA-A*02:01-β2m peptide complexes (inflection point of the melt curve).
To determine the relative stability of the individual HLA-A*02:01-peptide complexes the inventors followed their thermal denaturation by differential scanning fluorimetry. The melting temperatures (Tm) obtained from the melt curves allowed the inventors to compare the stability of the different complexes (FIG. 3).

[1] = tested on: KIR3DL1 expressing YTS cells; assay: HLA-B*57:01/peptide tetramer staining of KIR3DL1 transfected YTS cells (flow cytometry); format: cell-based; conditions: KIR3DL1 positive and negative YTS cells; 10, 50 and 100 μg/ml tetramer; 30 min on ice; preliminary study
Protocol: KIR3DL1 negative (top) and positive (bottom) YTS cells were analyzed for their staining using the indicated HLA-B/peptide tetramer. Binding of the tetramer to KIR3DL1 negative cells likely indicates binding of the tetramer to another receptor, such as 2B4 and, therefore, different KIR transfected cells, such as K562 cells will be used next.
In parallel, whether the HLA-tetramers can stain K562 cells that have been transfected with the corresponding allele-matched KIRDL receptor is tested. Without being limited to any particular theory, it is expected that HLA tetramers presenting the core peptide will stain K562 cells, while staining with tetramers presenting the C-terminally extended peptides is greatly impaired and will overlap with the isotype control. Appropriate anti KIR antibodies are used as positive control (Anti-KIR3DL1 clone DX9 and anti-KIR2DL1 clone HP-MA4 from Biolegend). […]

[2] = tested on: HLA-B*58:02 transfected 721.221 cells; assay: Cytotoxicity assay using KIR3DL1 transfected YTS cells and peptide-pulsed 721.221 target cells; format: cell-based; conditions: peptide 100 μM; KIR3DL1 YTS effectors; E:T 10:1; 2-4 hrs; preliminary study
Protocol: The ability of KIR3DL1 or KIR2DL1 transfected YTS cells to kill HLA expressing 721.221 target cells is tested. Since YTS cells are devoid of any inhibitory KIR, expression of a single KIR will tolerize YTS cells against the 721.221 target cell expressing the allele-matched HLA-B*58:02 (instead of HLA-B*57:01 used for SPR and crystallography) or HLA-C*04:01. HLA-B*58:02 is identical in sequence in the binding region for KIR3DL1 and reported to bind KIR3DL1 allele. 721.221/HLA-C*04:01 cells expressing a TAP inhibitor as well as the corresponding KIR2DL1 YTS transfectants have been obtained. In these 721.221 cells, peptides have to be loaded on the empty HLA-C on the cell surface. The advantage of this system is that the degree of inhibition can be titrated using different concentration of peptides. Target cell killing is assessed using a europium-based fluorescence killing assay as described (67). In this setup, the antibody IPH2101 serves as a positive control for killing, and the efficacy of extending peptides to induce killing is compared. IPH2101 is expressed, for which the sequence is available (Patent application: PCT/US2013/063068), similar to Fc fusion proteins in insect cells. […]
Cytotoxicity assay using KIR transfected YTS cells (FIG. 21) has been established. […] Finally, fluorescence was measured in a Perkin Elmer EnVision™ time-resolved fluorometer. […]

HLA-A*02:01 mutants = assay: Refolding of HLA-A*02:01 position 80 mutants with extending peptides (SEC); format: binding; conditions: increase in incorrectly folded heavy chain as indicator, preliminary data
Protocol: Refolding efficiency is judged by comparing peak high (at 45 kDa) with that of the preceding oligomeric peak.
It is possible that replacing T80 with amino acids Ile, Lys, and Asn as found in other common alleles may affect refolding. […] Whether a flexible F pocket in HLA-C*03:07 can be created was tested by exchange against the amino acids from HLA-A*02:01, either Thr80 or the combination of Thr80 and Thr142 together. Other amino acids at position 80 or mutate other alleles at position 80 and 142 were introduced as necessary.

Chain of KIR2DL1-Fc (P43626 22-245 limits assumed): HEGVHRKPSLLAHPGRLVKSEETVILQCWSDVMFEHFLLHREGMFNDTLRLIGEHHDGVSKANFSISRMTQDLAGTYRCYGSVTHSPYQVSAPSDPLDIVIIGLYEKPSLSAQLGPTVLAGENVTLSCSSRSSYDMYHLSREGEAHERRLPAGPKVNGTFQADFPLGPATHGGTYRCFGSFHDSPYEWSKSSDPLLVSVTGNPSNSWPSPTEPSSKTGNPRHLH

YFDPANGKF [Y9F, reference compound] was tested, and the “KIR2DL1-Fc binding to HLA-C*04:01-peptide complex” value (KIR2DL1-Fc) was “strong binding signal”.

In the case of GAVDPLLAL [G9L, reference compound], the “refolding of HLA-C*03:07 with peptide” value (HLA-C*03:07) is reported as “protein complex of proper size was observed”.

YFDPANGKFK [Y10K] was tested, and the “KIR2DL1-Fc binding to HLA-C*04:01-peptide complex” value (KIR2DL1-Fc) was “abrogated”.

For GLLPELPAVGGNE, the “relative stability of HLA-peptide complex” value (HLA-A*02:01) was “as stable as”.

With LSSPVTKSFDGK [L12K] the “binding of Alexa Fluor-647 HLA-B*57:01/peptide tetramer to YTS cells” value [1] was “bound to YTS cells, regardless whether KIR3DL1 was expressed or not” and the “induction of YTS NK cell killing of target cells” value [2] was “induce YTS NK cell killing; also recorded: appears to induce killing”.

For LSSPVTKSFK [L10K], the “induction of YTS NK cell killing of target cells” value [2] was “does not induce any killing”.

GLKEGIPAL was tested, and the “melting temperature (Tm) of HLA-A*02:01-peptide complex” value (HLA-A*02:01; differential scanning fluorimetry, SYPRO Orange, 20-85 °C) was 63 °C and the “relative stability of HLA-peptide complex” value (HLA-A*02:01) was “less stable complex as compared to peptide GLLPELPAV; also recorded: as stable as those with longer peptides”.

“YLSPIASPLLDGKSLR [T. gondii C-terminally extending peptide]” was tested, and the “difference in Tm between complex with extended peptide and with nested peptide” value (HLA-A*02:01; extended versus equivalent nested peptide) was “about 7 °C”.

For YFDPANGKFDN [Y11N], the “KIR2DL1-Fc binding to HLA-C*04:01-peptide complex” value (KIR2DL1-Fc) was “abrogated”.

In the case of GAVDPLLALD [G10D], the “refolding of HLA-C*03:07 with peptide” value (HLA-C*03:07) is reported as “protein complex of proper size was observed”.

In the case of “LSSPVTKSF [L9F, core self-peptide for HLA-B*57:01, reference compound]”, the “KIR2DL1-Fc binding to allele-mismatched HLA-B*57:01-peptide complex” value (KIR2DL1-Fc) is reported as “does not bind” and the “binding of Alexa Fluor-647 HLA-B*57:01/peptide tetramer to YTS cells” value [1] is reported as “bound to YTS cells, regardless whether KIR3DL1 was expressed or not”.

With “GLKEGIPALDN [G11N, T. gondii C-terminally extending peptide]” the “refolding efficiency of HLA-A*02:01 position 80 mutants with peptide (order of residues)” value (HLA-A*02:01 mutants) was “Ile80 (HLA-B)>Thr80 (HLA-A)>Lys80 (HLA-C*04:01)>Asn80 (HLA-C*03:07)”.

Source: patent US20200216492A1, “USE OF C-TERMINALLY EXTENDED PEPTIDES TO DISRUPT INHIBITOR NK CELL RECEPTOR INTERACTIONS WITH MHC I” (La Jolla Institute for Allergy and Immunology, priority 2016, published 2020)
